# Active and inactive are the calls of the source. The calls are words filed in the database; no cut-off is given here.
# Columns and labels:
# Type in all cases: functional
# CAKI-1 = assay: Cytotoxicity against human Caki1 cells at 10 uM after 48 hrs by SRB assay
# [1] = Cytotoxicity against human RXF393 cells at 10 uM after 48 hrs by SRB assay; conditions: RXF 393, 48 h, read-out: GI
# SN12C = assay: Cytotoxicity against human SN12C cells at 10 uM after 48 hrs by SRB assay; conditions: read-out: GI
# TK-10 = assay: Cytotoxicity against human TK10 cells at 10 uM after 48 hrs by SRB assay
# [2] = Cytotoxicity against human UO31 cells at 10 uM after 48 hrs by SRB assay; conditions: UO-31, 48 h, read-out: GI
# [3] = Cytotoxicity against human PC3 cells at 10 uM after 48 hrs by SRB assay; conditions: PC-3, 48 h, read-out: GI
# DU-145 = assay: Cytotoxicity against human DU145 cells at 10 uM after 48 hrs by SRB assay
# MCF7 = assay: Cytotoxicity against human MCF7 cells at 10 uM after 48 hrs by SRB assay; conditions: MCF7, 48 h, read-out: GI
# MDA-MB-231 = assay: Cytotoxicity against human MDA-MB-231 cells at 10 uM after 48 hrs by SRB assay; conditions: MDA-MB-231, 48 h, read-out: GI
# [4] = Cytotoxicity against human Hs 578T cells at 10 uM after 48 hrs by SRB assay; conditions: read-out: GI
# [5] = Cytotoxicity against human BT549 cells at 10 uM after 48 hrs by SRB assay; conditions: BT-549, 48 h, read-out: GI
# T47D = assay: Cytotoxicity against human T47D cells at 10 uM after 48 hrs by SRB assay; conditions: read-out: GI
# MDA-MB-468 = assay: Cytotoxicity against human MDA-MB-468 cells at 10 uM after 48 hrs by SRB assay; conditions: MDA-MB-468, 48 h, read-out: GI
# CCRF-CEM = assay: Cytotoxicity against human CCRF-CEM cells at 10 uM after 48 hrs by SRB assay; conditions: read-out: GI
# K562 = assay: Cytotoxicity against human K562 cells at 10 uM after 48 hrs by SRB assay; conditions: K562, 48 h, read-out: GI
# [6] = Cytotoxicity against human MOLT4 cells at 10 uM after 48 hrs by SRB assay; conditions: MOLT-4, 48 h, read-out: GI
# [7] = Cytotoxicity against human RPMI8226 cells at 10 uM after 48 hrs by SRB assay; conditions: RPMI-8226, 48 h, read-out: GI
# SR = assay: Cytotoxicity against human SR cells at 10 uM after 48 hrs by SRB assay; conditions: read-out: GI
# A549 = assay: Cytotoxicity against human A549 cells at 10 uM after 48 hrs by SRB assay; conditions: A549, 48 h, read-out: GI
# [8] = Cytotoxicity against human HOP62 cells at 10 uM after 48 hrs by SRB assay; conditions: HOP-62, 48 h, read-out: GI
# [9] = Cytotoxicity against human HOP92 cells at 10 uM after 48 hrs by SRB assay; conditions: HOP-92, 48 h, read-out: GI
# NCI-H226 = assay: Cytotoxicity against human NCI-H226 cells at 10 uM after 48 hrs by SRB assay; conditions: NCI-H226, 48 h, read-out: GI
# NCI-H23 = assay: Cytotoxicity against human NCI-H23 cells at 10 uM after 48 hrs by SRB assay; conditions: NCI-H23, 48 h, read-out: GI
# NCI-H322M = assay: Cytotoxicity against human NCI-H322M cells at 10 uM after 48 hrs by SRB assay
# NCI-H460 = assay: Cytotoxicity against human NCI-H460 cells at 10 uM after 48 hrs by SRB assay; conditions: NCI-H460, 48 h, read-out: GI
# NCI-H522 = assay: Cytotoxicity against human NCI-H522 cells at 10 uM after 48 hrs by SRB assay; conditions: NCI-H522, 48 h, read-out: GI
# [10] = Cytotoxicity against human COLO205 cells at 10 uM after 48 hrs by SRB assay; conditions: COLO 205, 48 h, read-out: GI
# HCC 2998 = assay: Cytotoxicity against human HCC2998 cells at 10 uM after 48 hrs by SRB assay
# [11] = Cytotoxicity against human HCT116 cells at 10 uM after 48 hrs by SRB assay; conditions: HCT-116, 48 h, read-out: GI
# [12] = Cytotoxicity against human HCT15 cells at 10 uM after 48 hrs by SRB assay; conditions: HCT-15, 48 h, read-out: GI
# HT-29 = assay: Cytotoxicity against human HT-29 cells at 10 uM after 48 hrs by SRB assay
# KM12 = assay: Cytotoxicity against human KM12 cells at 10 uM after 48 hrs by SRB assay; conditions: KM12, 48 h, read-out: GI
# [13] = Cytotoxicity against human SW620 cells at 10 uM after 48 hrs by SRB assay; conditions: SW-620, 48 h, read-out: GI
# SF-268 = assay: Cytotoxicity against human SF268 cells at 10 uM after 48 hrs by SRB assay
# [14] = Cytotoxicity against human SF295 cells at 10 uM after 48 hrs by SRB assay; conditions: SF-295, 48 h, read-out: GI
# [15] = Cytotoxicity against human SF539 cells at 10 uM after 48 hrs by SRB assay; conditions: SF-539, 48 h, read-out: GI
# [16] = Cytotoxicity against human SNB19 cells at 10 uM after 48 hrs by SRB assay; conditions: SNB-19, 48 h, read-out: GI
# [17] = Cytotoxicity against human SNB75 cells at 10 uM after 48 hrs by SRB assay; conditions: SNB-75, 48 h, read-out: GI
# U-251 = assay: Cytotoxicity against human U251 cells at 10 uM after 48 hrs by SRB assay; conditions: U-251, 48 h, read-out: GI
# LOX IMVI = assay: Cytotoxicity against human LOXIMVI cells at 10 uM after 48 hrs by SRB assay
# Malme-3M = assay: Cytotoxicity against human MALME-3M cells at 10 uM after 48 hrs by SRB assay; conditions: read-out: GI
# M14 = assay: Cytotoxicity against human M14 cells at 10 uM after 48 hrs by SRB assay; conditions: M14, 48 h, read-out: GI
# MDA-MB-435 = assay: Cytotoxicity against human MDA-MB-435 cells at 10 uM after 48 hrs by SRB assay; conditions: MDA-MB-435, 48 h, read-out: GI
# SK-MEL-28 = assay: Cytotoxicity against human SK-MEL-28 cells at 10 uM after 48 hrs by SRB assay
# SK-MEL-5 = assay: Cytotoxicity against human SK-MEL-5 cells at 10 uM after 48 hrs by SRB assay; conditions: SK-MEL-5, 48 h, read-out: GI
# UACC-257 = assay: Cytotoxicity against human UACC257 cells at 10 uM after 48 hrs by SRB assay
# [18] = Cytotoxicity against human UACC62 cells at 10 uM after 48 hrs by SRB assay; conditions: UACC-62, 48 h, read-out: GI
# IGROV-1 = assay: Cytotoxicity against human IGROV1 cells at 10 uM after 48 hrs by SRB assay
# [19] = Cytotoxicity against human OVCAR3 cells at 10 uM after 48 hrs by SRB assay; conditions: OVCAR-3, 48 h, read-out: GI
# OVCAR-4 = assay: Cytotoxicity against human OVCAR4 cells at 10 uM after 48 hrs by SRB assay
# [20] = Cytotoxicity against human OVCAR8 cells at 10 uM after 48 hrs by SRB assay; conditions: OVCAR-8, 48 h, read-out: GI
# [21] = Cytotoxicity against human NCI-ADR-RES cells at 10 uM after 48 hrs by SRB assay; conditions: read-out: GI
# SK-OV-3 = assay: Cytotoxicity against human SKOV3 cells at 10 uM after 48 hrs by SRB assay
# 786-0 = assay: Cytotoxicity against human 786-0 cells at 10 uM after 48 hrs by SRB assay; conditions: 786-0, 48 h, read-out: GI
# A498 = assay: Cytotoxicity against human A498 cells at 10 uM after 48 hrs by SRB assay; conditions: A498, 48 h, read-out: GI
# ACHN = assay: Cytotoxicity against human ACHN cells at 10 uM after 48 hrs by SRB assay; conditions: read-out: GI
structure (smiles),measurement,setting,value
Cc1nc2ccc(Nc3nc(NCCO)nc(Nc4ccc(F)cc4)n3)cc2n1Cc1ccccc1,growth inhibition (GI),CAKI-1,inactive
same,inhibition of growth at 10 µM,[1],26.1%
same,inhibition of growth at 10 µM,SN12C,1.6%
same,growth inhibition (GI),TK-10,inactive
same,inhibition of growth at 10 µM,[2],13.2%
same,inhibition of growth at 10 µM,[3],0.89%
same,growth inhibition (GI),DU-145,inactive
same,inhibition of growth at 10 µM,MCF7,19.8%
same,inhibition of growth at 10 µM,MDA-MB-231,7.95%
same,inhibition of growth at 10 µM,[4],8.56%
same,inhibition of growth at 10 µM,[5],20.6%
same,inhibition of growth at 10 µM,T47D,39.3%
same,inhibition of growth at 10 µM,MDA-MB-468,23%
same,inhibition of growth at 10 µM,CCRF-CEM,25.3%
same,inhibition of growth at 10 µM,K562,25.7%
same,inhibition of growth at 10 µM,[6],27.5%
same,inhibition of growth at 10 µM,[7],33.7%
same,inhibition of growth at 10 µM,SR,28.3%
same,inhibition of growth at 10 µM,A549,13.8%
same,inhibition of growth at 10 µM,[8],0.23%
same,inhibition of growth at 10 µM,[9],19.4%
same,inhibition of growth at 10 µM,NCI-H226,11.1%
same,inhibition of growth at 10 µM,NCI-H23,6.24%
same,growth inhibition (GI),NCI-H322M,inactive
same,inhibition of growth at 10 µM,NCI-H460,4.15%
same,inhibition of growth at 10 µM,NCI-H522,20.4%
same,inhibition of growth at 10 µM,[10],6.67%
same,growth inhibition (GI),HCC 2998,inactive
same,inhibition of growth at 10 µM,[11],13.3%
same,inhibition of growth at 10 µM,[12],8.36%
same,growth inhibition (GI),HT-29,inactive
same,inhibition of growth at 10 µM,KM12,7.5%
same,inhibition of growth at 10 µM,[13],0.58%
same,growth inhibition (GI),SF-268,inactive
same,inhibition of growth at 10 µM,[14],11%
same,inhibition of growth at 10 µM,[15],3.59%
same,inhibition of growth at 10 µM,[16],2.43%
same,inhibition of growth at 10 µM,[17],8.89%
same,inhibition of growth at 10 µM,U-251,6.96%
same,growth inhibition (GI),LOX IMVI,inactive
same,inhibition of growth at 10 µM,Malme-3M,6.95%
same,inhibition of growth at 10 µM,M14,6.68%
same,inhibition of growth at 10 µM,MDA-MB-435,2.54%
same,growth inhibition (GI),SK-MEL-28,inactive
same,inhibition of growth at 10 µM,SK-MEL-5,26%
same,growth inhibition (GI),UACC-257,inactive
same,inhibition of growth at 10 µM,[18],6.56%
same,growth inhibition (GI),IGROV-1,inactive
same,inhibition of growth at 10 µM,[19],3.09%
same,growth inhibition (GI),OVCAR-4,inactive
same,inhibition of growth at 10 µM,[20],4.04%
same,inhibition of growth at 10 µM,[21],18.1%
same,growth inhibition (GI),SK-OV-3,inactive
same,inhibition of growth at 10 µM,786-0,11.9%
same,inhibition of growth at 10 µM,A498,25.3%
same,inhibition of growth at 10 µM,ACHN,4.66%

# — ChEMBL document CHEMBL3745645, “Synthesis, in vitro antitumor activity, dihydrofolate reductase inhibition, DNA intercalation and structure-activity relationship studies of 1,3,5-triazine analogues” (Bioorg Med Chem Lett, 2016)
